From patent publication US20180153995A1, “USE OF ANTIMICROBIAL POLYMERS FOR RE-SENSITIZATION OF MICROORGANISMS UPON EMERGENCE OF RESISTANCE TO ANTI-MICROBIAL AGENTS” (Technion Research & Development Foundation Limited, priority 2008, published 2018)
Converted amounts (≈) assume the structure as drawn. “And” between values parts separate entries of the source, which are not always exact repeats. Equal values may be shown once. Read-outs that look alike come from different tables or passages of the source.

Assays:
S. aureus 15819 = assay: Antibiotic MIC by microdilution with or without sub-MIC polymer; type: cell-based, Staphylococcus aureus
MRSA 15903 = assay: microbe, parasite or virus in culture; type: cell-based, Staphylococcus aureus
Experimental: The fractionary inhibitory (FIC) concentration index for combinations of two antimicrobial agents was calculated as follows: FIC index=FICA+FICB=A/MICA+B/MICB where A and B are the MIC values of agent A and agent B in the combination, MICA and MICB are the MICs of agent A and agent B alone, and FICA and FICB are the FICs of agent A and agent B.
The FIC indexes were interpreted as follows: less than 0.5 indicates a clear re-sensitizing effect; from 0.5 to 4 indicates a marginal or null re-sensitizing effect; and over 4 indicates antagonism.
Experimental data for FIG. 4 were obtained as follows.

E. coli 16327 = assay: microbe, parasite or virus in culture; settings: for Antibiotic MIC: E. coli 16327
Experimental: (§1) MICs were determined by microdilution susceptibility testing in 96-well plates (by Nunc) using inocula of 10^5 bacteria per ml. Cell populations were evaluated by optical density measurements at 620 nm and were calibrated against a set of standards. Hundred (100) μl of a bacterial suspension were added to 100 μl of culture medium (control) or to 100 μl of culture medium containing various polymer concentrations in 2-fold serial dilutions. Inhibition of proliferation was determined by optical density measurements at 620 nm after an incubation period of 24 hours at 37° C.
(§2) 100 μl of a bacterial suspension were added to 100 μl of culture medium (control) or to 100 μl of culture medium containing various antibiotic and C14(9-ene)KKNC12KNH2 (SEQ ID NO: 5) concentrations in 2-fold serial dilutions. Inhibition of proliferation was determined by optical density measurements at 620 nm after an incubation period of 24 hours at 37° C.

E. coli 14384 = assay: Antibiotic MIC by microdilution with or without sub-MIC polymer; type: cell-based, Escherichia coli; settings: E. coli 14384; for Antibiotic MIC: no polymer (None)
Experimental: as §1, §2

E. coli 14182 = assay: as above; type: cell-based, Escherichia coli
S. maltophila 748 = assay: as above; type: cell-based, Stenotrophomonas maltophila
S. aureus 43300 [1] = assay: as above; type: cell-based, Staphylococcus aureus
S. aureus 43300 [2] = assay: as above; type: cell-based, Staphylococcus aureus; remark: listed apart in the source
Experimental: as §1
Table 8 below presents the MIC values of antibiotics in presence or absence of C12(5-ene)KKNC12KNH2 (SEQ ID NO: 2) at sub-MIC levels of the polymer, as measured for the S. aureus strains 43300 (ATCC), 15819 (clinical isolate), 15877 (clinical isolate) and 15852 (clinical isolate). MICs were determined by microdilution susceptibility testing in 96-well plates (Nunc) using inocula of 10^5 bacteria per ml. One hundred (100) μl of a bacterial suspension were added to 100 μl of culture medium (control) or to 100 μl of culture medium containing various antibiotic and C12(5-ene)KKNC12KNH2 (SEQ ID NO: 2) concentrations in 2-fold serial dilutions. Inhibition of proliferation was determined by optical density measurements at 620 nm after an incubation period of 24 hours at 37° C.
as §2

[3] = +½ MIC (3.12 μM) C12K(KNC12K)2NH2
[4] = +½ MIC (3.12 μM) C14(9-ene)KKNC12KNH2

Question: With `O=C(O)c1cn(C2CC2)c2cc(N3CCNCC3)c(F)cc2c1=O` [Ciprofloxacin, ciprofloxacin] as the compound, how does the “Antibiotic MIC” value (S. aureus 15819) read?
Answer: 0.125 µg/mL and 0.125 to 0.25 µg/mL

Question: And the “Antibiotic MIC” value (S. aureus 15819; S. aureus 15819, +¼ MIC (1.6 μM) C12K(KNC12K)3NH2)?
Answer: 0.125 µg/mL

Question: What about the “Antibiotic MIC” value (S. aureus 15819; S. aureus 15819, +½ MIC (3.12 μM) C12K(KNC12K)3NH2) of the same compound?
Answer: 0.06 µg/mL

Question: What about the “Antibiotic MIC” value (S. aureus 15819; S. aureus 15819, +⅓ MIC (2.1 μM) C12K(KNC12K)3NH2) of the same compound?
Answer: 0.125 µg/mL

Question: What about the “Antibiotic MIC” value (S. aureus 15819; S. aureus 15819, no polymer (None), Table 8) of the same compound?
Answer: 0.125 to 0.25 µg/mL

Question: And the “Antibiotic MIC” value (S. aureus 15819; S. aureus 15819, no polymer (None), Table 11)?
Answer: 0.125 to 0.25 µg/mL

Question: And the “Antibiotic MIC” value (S. aureus 15819; S. aureus 15819, no polymer (None), Table 13)?
Answer: 0.25 µg/mL

Question: And the MIC (MRSA 15903; MRSA 15903, +¼ polymer MIC (1.6 μM) NC12(KNC12K)2NH2)?
Answer: 32 µg/mL

Question: And the MIC (MRSA 15903; MRSA 15903, +½ polymer MIC (3.1 μM) NC12(KNC12K)2NH2)?
Answer: 1 µg/mL

Question: And the MIC (MRSA 15903; MRSA 15903, +⅓ polymer MIC (2.1 μM) NC12(KNC12K)2NH2)?
Answer: 16 µg/mL

Question: What about the “MIC, ¼ + MIC OAK” value (MRSA 15903; MRSA 15903, with C12K(KNC10K)3NH2 (SEQ ID NO: 10) at ¼ of its MIC) of the same compound?
Answer: 128 µg/mL

Question: And the “MIC, ½ + MIC OAK” value (MRSA 15903; MRSA 15903, with C12K(KNC10K)3NH2 (SEQ ID NO: 10) at ½ of its MIC)?
Answer: 64 µg/mL

Question: What about the “MIC, ⅓ + MIC OAK” value (MRSA 15903; MRSA 15903, with C12K(KNC10K)3NH2 (SEQ ID NO: 10) at ⅓ of its MIC) of the same compound?
Answer: 128 µg/mL

Question: And the MIC (MRSA 15903; S. aureus CI-15903, +polymer (¼ MIC) C12(5-ene)KKNC12KNH2)?
Answer: 32 µg/mL

Question: What about the MIC (MRSA 15903; S. aureus CI-15903, +polymer (½ MIC) C12(5-ene)KKNC12KNH2) of the same compound?
Answer: 0.25 µg/mL

Question: What about the MIC (MRSA 15903; S. aureus CI-15903, +polymer (⅓ MIC) C12(5-ene)KKNC12KNH2) of the same compound?
Answer: 4 µg/mL

Question: And the MIC (MRSA 15903; Staphylococcus aureus, MRSA, 24 h, MRSA 15903, antibiotic alone (Table 22), read-out: MIC, Alone)?
Answer: 256 µg/mL

Question: What about the MIC (MRSA 15903; Staphylococcus aureus, MRSA, 24 h, MRSA 15903, antibiotic alone, read-out: MIC) of the same compound?
Answer: 64 µg/mL

Question: What about the MIC (MRSA 15903; Staphylococcus aureus, MRSA, 24 h, S. aureus CI-15903, alone, read-out: MIC) of the same compound?
Answer: 64 µg/mL

Question: And the “Antibiotic MIC” value (E. coli 16327; +¼ MIC (1.6 μM) C12K(KNC12K)2NH2)?
Answer: >512 µg/mL

Question: What about the “Antibiotic MIC” value (E. coli 16327; [3]) of the same compound?
Answer: 128 µg/mL

Question: What about the “Antibiotic MIC” value (E. coli 16327; [4]) of the same compound?
Answer: 32 to 64 µg/mL

Question: And the “Antibiotic MIC” value (E. coli 16327; +⅓ MIC (2.1 μM) C12K(KNC12K)2NH2)?
Answer: >512 µg/mL

Question: And the “Antibiotic MIC” value (E. coli 16327; no polymer (None), Table 9)?
Answer: >512 µg/mL

Question: What about the “Antibiotic MIC” value (E. coli 16327; no polymer (None), Table 10) of the same compound?
Answer: >512 µg/mL

Question: And the “Antibiotic MIC” value (E. coli 16327; no polymer (None), Table 12)?
Answer: >512 µg/mL

Question: And the “MIC, ¼ + MIC OAK” value (E. coli 16327; E. coli U16327, with C12K(KNC10K)3NH2 (SEQ ID NO: 10) at ¼ of its MIC)?
Answer: 128 to 256 µg/mL

Question: What about the “MIC, ½ + MIC OAK” value (E. coli 16327; E. coli U16327, with C12K(KNC10K)3NH2 (SEQ ID NO: 10) at ½ of its MIC) of the same compound?
Answer: 128 µg/mL

Question: And the “MIC, ⅓ + MIC OAK” value (E. coli 16327; E. coli U16327, with C12K(KNC10K)3NH2 (SEQ ID NO: 10) at ⅓ of its MIC)?
Answer: 128 µg/mL

Question: What about the “Antibiotic MIC, None” value (E. coli 16327; E. coli U-16327, antibiotic alone (Table 15)) of the same compound?
Answer: 128 to 256 µg/mL

Question: And the “Antibiotic MIC in presence of C12K(NC8K)7NH2 (SEQ ID NO: 4), +¼ MIC” value (E. coli 16327; E. coli U-16327, polymer at ¼ of its MIC)?
Answer: 64 to 128 µg/mL

Question: What about the “Antibiotic MIC in presence of C12K(NC8K)7NH2 (SEQ ID NO: 4), +½ MIC” value (E. coli 16327; E. coli U-16327, polymer at ½ of its MIC) of the same compound?
Answer: 16 µg/mL

Question: And the “Antibiotic MIC in presence of C12K(NC8K)7NH2 (SEQ ID NO: 4), +⅓ MIC” value (E. coli 16327; E. coli U-16327, polymer at ⅓ of its MIC)?
Answer: 32 to 64 µg/mL

Question: And the MIC (E. coli 16327; Escherichia coli, 16327, read-out: MIC, Alone)?
Answer: 256 µg/mL (≈ 773 µM)

Question: And the “Antibiotic MIC, None” value (E. coli 14384; antibiotic alone (Table 15))?
Answer: <0.03 µg/mL

Question: And the “Antibiotic MIC” value (E. coli 14384; Table 9)?
Answer: <0.03 µg/mL

Question: What about the “Antibiotic MIC” value (E. coli 14384; Table 14) of the same compound?
Answer: <0.03 µg/mL

Question: What about the “Antibiotic MIC, None” value (E. coli 14182; antibiotic alone (Table 15)) of the same compound?
Answer: <0.03 µg/mL

Question: And the “Antibiotic MIC” value (E. coli 14182; no polymer (None), Table 14)?
Answer: <0.03 µg/mL

Question: And the “Antibiotic MIC” value (S. maltophila 748; +¼ MIC (1.6 μM) C12K(KNC12K)3NH2)?
Answer: 8 µg/mL

Question: And the “Antibiotic MIC” value (S. maltophila 748; +½ MIC (3.12 μM) C12K(KNC12K)3NH2)?
Answer: 2 µg/mL

Question: What about the “Antibiotic MIC” value (S. maltophila 748; +⅓ MIC (2.1 μM) C12K(KNC12K)3NH2) of the same compound?
Answer: 4 to 8 µg/mL

Question: What about the “Antibiotic MIC” value (S. maltophila 748; no polymer (None), Table 13) of the same compound?
Answer: 8 µg/mL

Question: And the “Antibiotic MIC” value (S. aureus 43300 [1]; +¼ MIC (1.6 μM) C12(5-ene)KKNC12KNH2)?
Answer: 0.25 µg/mL

Question: What about the “Antibiotic MIC” value (S. aureus 43300 [1]; +¼ MIC (1.6 μM) C12KKNC12KNH2) of the same compound?
Answer: 0.5 µg/mL

Question: What about the “Antibiotic MIC” value (S. aureus 43300 [1]; +¼ MIC (1.6 μM) C16(9-ene)KKNC12KNH2) of the same compound?
Answer: 0.25 µg/mL

Question: And the “Antibiotic MIC” value (S. aureus 43300 [1]; [3])?
Answer: 0.13 to 0.25 µg/mL

Question: What about the “Antibiotic MIC” value (S. aureus 43300 [1]; +½ MIC (3.12 μM) C12KKNC12KNH2) of the same compound?
Answer: 0.25 µg/mL

Question: What about the “Antibiotic MIC” value (S. aureus 43300 [1]; +½ MIC (3.12 μM) C16(9-ene)KKNC12KNH2) of the same compound?
Answer: 0.125 µg/mL

Question: And the “Antibiotic MIC” value (S. aureus 43300 [1]; +⅓ MIC (2.1 μM) C12(5-ene)KKNC12KNH2)?
Answer: 0.125 µg/mL

Question: And the “Antibiotic MIC” value (S. aureus 43300 [1]; +⅓ MIC (2.1 μM) C12KKNC12KNH2)?
Answer: 0.5 µg/mL

Question: And the “Antibiotic MIC” value (S. aureus 43300 [1]; +⅓ MIC (2.1 μM) C16(9-ene)KKNC12KNH2)?
Answer: 0.25 µg/mL

Question: What about the “Antibiotic MIC” value (S. aureus 43300 [2]; +¼ MIC (1.6 μM) C14(9-ene)KKNC12KNH2) of the same compound?
Answer: 0.25 to 0.5 µg/mL

Question: And the “Antibiotic MIC” value (S. aureus 43300 [2]; +½ MIC (3.12 μM) C12(5-ene)KKNC12KNH2)?
Answer: 0.03 µg/mL

Question: And the “Antibiotic MIC” value (S. aureus 43300 [2]; [4])?
Answer: 0.25 µg/mL

Question: What about the “Antibiotic MIC” value (S. aureus 43300 [2]; +⅓ MIC (2.1 μM) C14(9-ene)KKNC12KNH2) of the same compound?
Answer: 0.25 to 0.5 µg/mL

Question: What about the “Antibiotic MIC” value (S. aureus 43300 [2]; no polymer (None), Table 8) of the same compound?
Answer: 0.5 µg/mL

Question: What about the “Antibiotic MIC” value (S. aureus 43300 [2]; no polymer (None), Table 9) of the same compound?
Answer: 0.5 µg/mL

Question: What about the “Antibiotic MIC” value (S. aureus 43300 [2]; no polymer (None), Table 10) of the same compound?
Answer: 0.25 µg/mL

Question: And the “Antibiotic MIC” value (S. aureus 43300 [2]; no polymer (None), Table 11)?
Answer: 0.5 µg/mL

Question: And the “Antibiotic MIC” value (S. aureus 43300 [2]; no polymer (None), Table 12)?
Answer: 0.5 µg/mL
